For experiment [1], the system named is full length and Δ7 SMN2 mRNAs. Kind of experiment: Endogenous SMN2 mRNA end-point semi-quantitative RT-PCR splicing assay in cultured cells. Format: cell-based, human. As to conditions: GM03813 Type 1 SMA patient fibroblasts, increasing concentrations, 24 hrs, agarose gel. The procedure:
The endpoint reverse transcription-PCR splicing assay is used to visualize and quantify the levels of the full length and Δ7 SMN2 mRNAs in primary cells and cell lines containing the SMN2 gene treated with a test compound.
Protocol. GM03813 SMA patient cells (5,000 cells/well) are seeded in 200 μL of cell culture medium (DMEM plus 10% FBS) in 96-well flat-bottom plates and the plate is immediately swirled to ensure proper dispersal of cells, forming an even monolayer of cells. Cells are allowed to attach for at least 4-6 hrs. Test compounds are serially diluted 3.16-fold in 100% DMSO to generate a 7-point concentration curve. A solution of test compound (1 μL, 200× in DMSO) is added to each test well and 1 μL DMSO is added to each control well. The plate is incubated for 24 hrs in a cell culture incubator (37° C., 5% CO2, 100% relative humidity). The cells are then lysed in Cells-To-Ct lysis buffer and the lysate is stored at −80° C.
SMN FL and Δ7 mRNAs are identified using the following primers in Table 6. These primers hybridize to a nucleotide sequence in exon 6 (SMN Forward C, SEQ ID NO. 11) (nucleotide 43 to nucleotide 63) and exon 8 (SMN Reverse C, SEQ ID NO. 12) (nucleotide 51 to nucleotide 73) common to human SMN1 and SMN2 mRNAs. Since the SMA patient cells used in Example 4 contain only the SMN2 gene, RT-PCR can visualize and quantify only SMN2 full-length and SMN2 Δ7 mRNAs.
To synthesize cDNA, 5 μL of lysate, 4 μL of 5× iScript reaction mix, 1 μL of reverse transcriptase, and 10 μL of water are combined and incubated 5 min at 25° C. followed by 30 min at 42° C., followed by 5 min at 85° C. cDNA solution is stored at −20° C.
To perform endpoint PCR, 5 μL of cDNA, 0.2 μL of 100 μM forward primer, 0.2 μL of 100 μM reverse primer, and 22.5 μL of polymerase super mix are combined in a 96 well semiskirted PCR plate. PCR is carried out at the following temperatures for indicated time: Step 1: 94° C. (2 min), Step 2: 94° C. (30 sec), Step 3: 55° C. (30 sec), Step 4: 68° C. (1 min), then repeat Steps 2 to 4 for a total of 33 cycles, then hold at 4° C.
10 μL of each PCR sample is electrophoretically separated on a 2% agarose E-gel for 14 minutes stained with ds DNA staining reagents (e.g., ethidium bromide) and visualized using a gel imager.

The next experiment concerns Smn protein. Kind of experiment: Smn protein assay in cultured cells (SMN HTRF). Format: cell-based, human. As to conditions: 48 hours; for Smn protein expression: SMA Type 1 patient fibroblast cells, SMN HTRF assay; for maximum fold (Fold) increase of Smn protein: SMA patient fibroblast cells, 7-point concentration data, fold increase relative to vehicle control (SMN HTRF). In short, it runs like this:
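Lysates in RIPA with protease inhibitors are incubated overnight at room temperature with HTRF anti-SMN antibodies. EC1.5x is derived from fold increase in ΔF over vehicle.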
(In general: In TR-FRET formats the signal depends on donor and acceptor labels being close together.)

Results on two molecules are retold here after patent publication USRE47689E1, “Compounds for treating spinal muscular atrophy” (PTC Therapeutics, Inc., priority 2011, dated 2019).

For `CCN1CCN(c2ccc3cc(-c4cn5cc(C)nc(C)c5n4)c(=O)oc3c2)C[C@@H]1C` [Cpd 626, 3-(6,8-dimethylimidazo[1,2-a]pyrazin-2-yl)-7-[(3S)-4-ethyl-3-methylpiperazin-1-yl]-2H-chromen-2-one], in experiment [1], the “SMN2 FL mRNA” value is recorded as “progressively more SMN2 FL mRNA” and the “SMN2 Δ7 mRNA” value is given as “less SMN2 Δ7 mRNA”. For the same molecule, in the experiment with Smn protein (SMA Type 1 patient fibroblast cells (GM03813), 7-point concentration curve, SMN HTRF, concentration producing 1.5 times Smn protein vs DMSO vehicle control, read-out: EC1.5x for Smn protein expression), the EC1.5x (concentration giving 1.5-fold Smn protein increase) is under 300 nM. In the experiment on Smn protein, the Smn protein expression result is given as “dose dependent increase in Smn protein expression”; the “maximum fold (Fold) increase of Smn protein” value was “**** (fold increase between >1.5 and ≤1.65)”.

In the case of `CC(C)NCCc1ccc2cc(-c3nc4c(Cl)cccc4s3)c(=O)oc2c1` [Cpd 35, 3-(4-chloro-1,3-benzothiazol-2-yl)-7-[2-(propan-2-ylamino)ethyl]-2H-chromen-2-one], in experiment [1], the “SMN2 FL mRNA” value was “progressively more SMN2 FL mRNA” and the “SMN2 Δ7 mRNA” value is on record as “less SMN2 Δ7 mRNA”. Further, in the experiment on Smn protein, the Smn protein expression entry is listed as “dose dependent increase in Smn protein expression” and the “maximum fold (Fold) increase of Smn protein” value was “* (maximum fold increase of ≤1.2)”.
